{
  "source": "patent US9587220B2",
  "about": "“Method for inducing cardiac differentiation of pluripotent stem cell” (Kyoto University, priority 2012, dated 2017)",
  "assay_type_in_all_cases": "cell-based, human",
  "key": {"[1]": {"system": "hESC lines (KhES-1, KhES-3), monkey ESC line (CMK6.4), mouse ESC line (R1), hiPSC lines (IMR90-1, IMR90-4, 253G1, RCHIPC0003)", "assay": "Beating cardiac colony ratio in a variety of PSC lines treated with KY02111 (serum-containing medium)", "settings": "KY02111 treatment, FIG. 1e", "description": "All PSC lines were maintained on mitomycin C-treated mouse embryonic fibroblasts (MEF), in Primate ES Cell Culture Medium (ReproCELL Inc., Japan), with 5 ng ml^−1 bFGF for hPSCs, and without bFGF for monkey ESCs. Human ESC lines were KhES-1, KhES-3, H1, and H9 (Non-patent literatures 1, 41). Human iPSC lines were 253G1, IMR90-1, IMR90-4 (Non-patent literatures 42, 43), and RCHIPC0003. RCHIPC0003 was established from human fibroblasts by ReproCELL. The monkey ESC line was CMK6.4 (Non-patent literatures 1, 44, 45). The hESC line was used in conformity with the Guidelines for Derivation and Utilization of Human Embryonic Stem Cells of the Ministry of Education, Culture, Sports, Science, and Technology of Japan.\nConfluent hESCs and hiPSCs were gently detached with CTK solution and transferred into Petri dishes (BD Biosciences) with Primate ES Cell Culture Medium (ReproCELL, Japan). Cells were held in suspension culture for 8-24 h to form aggregates. The sizes of hPSC aggregates (0.3-1 mm in diameter) are important for efficient differentiation. […] Beating colonies were counted on Day 9."}, "IMR90-1 hiPSCs": {"system": "IMR90-1 hiPSCs", "assay": "Number of beating colonies and total number of cardiomyocytes per well (WNT inhibitor combinations)", "settings": "total cell number x cTnT-positive ratio, FIG. 3e"}, "[2]": {"system": "KY02111-induced cardiomyocytes (KY-CMs)", "assay": "qPCR of cardiac marker and ion channel genes in KY02111-induced cardiomyocytes", "settings": "Days 15 and 30", "description": "Total RNA was isolated with an RNeasy Mini Kit (QIAGEN). Genomic DNA was completely digested with DNase I (Invitrogen). Total RNA (0.5 μg) was subjected to cDNA synthesis using the SuperScript III Reverse Transcriptase (Invitrogen). qRT-PCR was performed in triplicate, using SYBER GREEN PCR Master Mix on a 7500 Real Time PCR System (Applied Biosystems). The cycling conditions were as follows: 10 min at 95° C.; 40 cycles, each consisting of 15 s at 95° C.; 1 min at 60° C. Total RNA from human adult heart tissue (BioChain) was used to evaluate the expression levels of cardiac marker genes for cardiomyocytes derived from hPSCs. All values were normalized with respect to GAPDH expression level and expressed relative to the corresponding values in human adult hearts (100%)."}, "[3]": {"system": "TCF promoter activity in HEK293 cells", "assay": "TOPflash TCF reporter assay in HEK293 cells", "settings": "10 μM", "description": "For the TCF reporter assay, IMR90-1 hiPSCs were cultured in the serum-containing differentiation culture, as described above, and transfected with TOPFlash plasmid (Millipore 21-170) and pRL-SV40 plasmid (Renilla luciferase transfection control, Promega E1980) on Day 2, using FuGENE HD transfection Reagenet (Promega E2311). After 24 h, 10 μM KY02111, 10 μM XAV939, or 10 μM IWP-2 was added to the medium, along with either 60 ng ml^−1 of mouse Wnt3a (Wako 232-02421) or 3 μM BIO. After 48 h of transfection (Day 4), luciferase activities were measured using a Dual-Luciferase Reporter 1000 Assay System kit (Promega E1980) and a 2030 ARVO X3 plate reader (PerkinElmer). Luciferase activities were normalized to the luminescence of the transfection control, Rennila luciferase, according to the kit protocol. For experiments using HEK293 cells, the cells were cultured in 10% FBS DMEM medium, and transfected with TOPflash and pRL-SV40 plasmid, using FuGENE HD. After 24 h, the transfected cells were seeded onto 96-well plates (10,000 cells well^−1) in medium containing 10 μM KY02111, 10 μM XAV939, or 10 μM IWP-2, along with 3 μM BIO or 60 ng ml^−1 mouse Wnt3a. Luciferase activities were measured 48 h after transfection by the procedure described above."}},
  "note": "Values joined by “and” are separate entries in the source; they are usually repeats but may differ in a detail not shown here. Equal entries are not always repeated. “Also recorded” adds a separate entry of the source.",
  "data": [
    {"smiles": "COc1ccc(CCC(=O)Nc2nc3ccc(Cl)cc3s2)cc1OC", "note": "[KY02111, 2-(3-(3,4-dimethoxyphenyl)propanamide)-6-chlorobenzothiazole]", "values": [
      {"measurement": "ratio of beating colonies per all of colonies on culture dish", "setting": "[1]", "value": "60-94% and 70-90%"},
      {"measurement": "number of cardiomyocytes produced relative to the control", "setting": "IMR90-1 hiPSCs", "value": 80, "unit": "fold"},
      {"measurement": "expression of ion channel genes in KY-CMs relative to adult heart tissue", "setting": "[2]", "value": "equivalent to those of adult heart tissue"},
      {"measurement": "TCF promoter activity by Wnt3a", "setting": "[3]; with 60 ng/ml Wnt3a", "value": "enhanced luciferase activity; also recorded: further augmented"},
      {"measurement": "TCF promoter activity by BIO", "setting": "[3]; with 3 μM BIO", "value": "cancelled WNT activation by BIO; also recorded: inhibited"}
    ]}
  ]
}
